Our source for the Emax and 5HT2A antagonist actions values is paper PMC12630292 (Journal of Neural Transmission, 2025).

Like-named read-outs stand apart in the source and are kept apart here.

In general, Emax refers to the maximal effect, on the per cent scale that the assay sets.

The target in one assay is D2L receptor (Homo sapiens, UniProt P14416). Nature of the assay: cell-based. The note with it: read-out: Emax relative to dopamine, β-arrestin assay D2L.
The target in a further assay is D4 receptor (Homo sapiens, UniProt P21917). Nature of the assay: cell-based. The settings on record: read-out: Emax relative to dopamine, β-arrestin assay D4.
A further assay deals with D2S receptor (Homo sapiens, UniProt P14416). Nature of the assay: cell-based. The note with it: read-out: Emax relative to dopamine, β-arrestin assay D2S.
The target of assay [1] is T1, D1 receptor (Homo sapiens, UniProt P21728). Nature of the assay: cell-based. The note with it: read-out: Emax relative to dopamine, β-arrestin assay D1.
The target of assay [2] is T1, D1 receptor. Put plainly: cell-based. The settings on record: read-out: Emax relative to dopamine, internalization assay D1.
The target in another assay is D3 receptor (Homo sapiens, UniProt P35462). Nature of the assay: cell-based. The note with it: read-out: Emax relative to dopamine, β-arrestin assay D3.
In the next assay the test system is 5HT2A. The note with it: ref Millan et al. [2002]; Newman-Tancredi et al. [2002]; cited from earlier work.

With `CN1CCc2cccc3c2[C@H]1Cc1ccc(O)c(O)c1-3` [Apomorphine], the maximum response (Emax) was 83% at D2L receptor; 52% at D4 receptor; 90% at D2S receptor; 28% on D1 receptor [1]; 38% at D1 receptor [2]; 89% at D3 receptor. Further, the 5HT2A antagonist actions result in the assay on 5HT2A is on record as “weak”.
